Assay results: US20240358678A1, “METHODS AND COMPOSITIONS FOR ENHANCING CHEMOTHERAPEUTIC DRUG UPTAKE INTO BRAIN TUMORS” (Brown University, priority 2023, published 2024)

Key:
[1] = test system: HCMEC/D3 cells; assay: Bulk RNA-sequencing of HCMEC/D3 cells treated with BIA; assay type: cell-based, human
Procedure: RNA-sequencing of HCMEC/D3 cells treated with BIA: For RNA-sequencing, HCMEC/D3 cells were plated at a density of 500,000 cells/well in a 6-well plate. Left to grow for 24 hours, and then treated with 1 μM of BIA or DMSO (control). After 24 hours, cells were collected and processed for RNA extraction using the column-based RNeasy kit (QIAGEN), following provider's instructions. RNA quality and quantity were quantified using a Nanodrop™ One (Invitrogen). At least 500 ng of RNA was submitted for bulk RNA-sequencing at GeneWiz (Azenta Life Sciences). QC was accessed, and library was prepared with Poly(A) selection. Sequencing was performed using Illumina HiSeq.
Differential gene expression on the RNA-seq raw data (FASTQ files) was analyzed by Azenta Life Sciences using DESeq2 aligning to human transcriptome. Data QC was verified. Log2 fold change (Log 2FC) was calculated by Log2 (BIA group mean normalized counts/Control group mean normalized counts). The Wald test p-value and Benjamini-Hochberg adjusted p-value were calculated. A heatmap and volcano plot of top adjusted p-value differentially expressed genes (DEGs) in ensemble ID annotation bi-clustering to treatment conditions were generated. Control and BIA groups consisted of three-independent samples.

[2] = test system: HCMEC/D3 cells; assay: Western blot of HCMEC/D3 cells; assay type: cell-based, human
Procedure: Western blot: HCMEC/D3 and GBM cell lysates were collected in RIPA Buffer (Thermo Fisher Scientific) supplemented with 1× protease/phosphatase inhibitor cocktail (Cell Signaling). Lysate collection from murine tumor tissue samples (˜30 mg) was performed under homogenization using 23G and 26G needles. Total protein concentration was measured using Pierce 660 nm Protein Assay Reagent (Thermo Fisher Scientific) at 660 nm absorbance in Molecular Devices SpectraMax M2 plate reader. Samples were incubated in 1× Laemmli sample buffer (BioRad) at 95 degrees Celsius for 5 minutes before loading onto 10% Mini-PROTEAN TGX precast protein gel (BioRad). PageRuler Plus Pre-stained Protein Ladder (Thermo Fisher Scientific) was used as ladder. Appropriate secondary antibodies, Goat anti-mouse-HRP (Sigma) or Goat anti-rabbit-HRP (Sigma) in 5% milk in 1×TBST with 1:5000 dilution.

[3] = test system: HCMEC/D3 cells; assay: Trans-endothelial electrical resistance (TEER) of HCMEC/D3 monolayers; assay type: cell-based, human
Procedure: Trans-endothelial electrical resistance: HCMEC/D3 or HBMEC cells were plated in 8W10E+ PET 8-well arrays (Applied Biophysics) at a density of 100,000 cells/well in 500 μl. These arrays were placed in a pre-stabilized ECIS Z-Theta instrument (Applied Biophysics). Using the ECIS Z-Theta software (Applied Biophysics), measurements were set to 4000 and 64000 Hz every 30 minutes. […] Cells would then be treated with BIA and left to grow up to 5 days, with frequent drug-containing media re-addition for maintenance of the culture. Resistance (W) and capacitance (nF) were recorded and plotted.

[4] = test system: G9-PCDH, G34-PCDH and GL-261 GBM tumors; assay: ICP-MS platinum quantification in GBM tumor-bearing mice after BIA and cisplatin; assay type: in vivo; details: G9-PCDH xenograft, increasing BIA doses
Procedure: (§1) In vivo studies: For intra-cranial tumor implantation, GBM neuro-spheres were grown to 70% confluency before dissociated into single cell on the day of surgery. 50,000 cells were resuspended in 3 μl of sterile PBS and injected intracranially into the striatum (2 mm right hemisphere, 1 mm frontal, 3 mm depth from bregma) of mice under anesthesia and stereo-tactically fixed. Tumors were left to grow for approximately 2-3 weeks, depending the cell line. Animals were randomized to treatment groups. BIA injections consisted of 20 mg/kg (i.p.), except if indicated otherwise. PPRX-1701 was administered at 20 mg/kg (i.v.) via lateral tail-vein. Cisplatin injections were performed at 5 mg/kg (maximum tolerated dose, i.p.). All GBM tumor murine studies involved continuous condition and weight assessments, with endpoint considered when 20% of weight loss and/or moderate-to-high grimace scale and neurological symptoms were observed.
(§2) ICP-MS for platinum quantification: Mice treated with cisplatin after BIA administration were euthanized, intra-cardially perfused with PBS and tissue harvested to be stored at −80 degrees Celsius. Tissue was processed and platinum (Pt195) was quantified using an Agilent 7900 ICP-MS, as previously described.^42

[5] = test system: G9-PCDH, G34-PCDH and GL-261 murine GBM tumors; assay: as above; assay type: in vivo
Procedure: as §1, §2

[6] = test system: HCMEC/D3 cells; assay: Platinum levels in brain endothelial cells treated with BIA and cisplatin; assay type: cell-based, human; details: 2 μM BIA and cisplatin simultaneously
[7] = test system: G9-PCDH and G34-PCDH xenograft murine models; assay: Immunofluorescence of brain tissue from GBM xenograft models; assay type: in vivo, mice; details: 24 hours after 20 mg/kg BIA
Procedure: For mouse brain tissue staining, brains were collected from CO2 euthanized and PBS perfused tumor-bearing mice, and fixed in 10% formalin for 72 hours on rotation in the cold. Then, brains were transferred to 30% sucrose for 3 days at 4 degrees Celsius under rotation. Before cryo-sectioning, brains were frozen at −80 degree Celsius for more than 30 minutes, embedded in Optimal Cutting Temperature (OCT) compound (Fisher) and transferred to −27 degrees Celsius to a cryostat (Leica CM1950) for sectioning (20 μm thickness). Sections were placed on slides and staining followed as indicated above. All pictures were taken using a LSM 880 Zeiss confocal microscope.
as §1

[8] = test system: patient-derived GBM neuro-spheres; assay: GBM neuro-sphere cell viability assay (Cell-Titer Glo 3D), BIA and cisplatin; assay type: cell-based, human; details: BIA 1 μM, 5 days
Procedure: Cell viability assay: Cells were plated at a density of 1500 cells/well in black-well clear bottom 96-well plates and left growing in culture conditions overnight. Next day, cells were treated with titrating doses of the indicated compounds. For BIA only cytotoxicity studies, cells were incubated with BIA for 96 hours. For BIA and cisplatin combinatorial studies, cells were incubated with BIA and cisplatin, and corresponding controls, for 5 days. Next, we used the Cell-Titer Glo 3D (Promega) following provider's guidelines and quantified for luminescence signal using a Molecular Devices SpectraMax M2 plate reader. Conditions were repeated in triplicates.

Compound: CC(=O)ON=C1C(=C2C(=O)Nc3cc(Br)ccc32)Nc2ccccc21 [BIA, 6-bromoindirubin acetoxime]
- ERG expression [1]: downregulation of ERG
- expression of WNT4, WNT10A and WNT11 ligands [1]: increase of expression
- expression of WNT7B and WNT ligand receptors FZD4 and FZD7 [1]: decrease
- CDH5 gene expression change upon BIA treatment ([1]; BIA 1 μM, 24 hrs): −3.06 fold, log 2
- PCDH12 expression ([1]; BIA 1 μM, 24 hrs): increased its expression
- expression of PHGDH, AXIN2, TCF7, VLDLR and VEGFA ([1]; BIA 1 μM, 24 hrs): promoted expression
- expression of angiogenesis-related genes MMRN2, CD93, ACVRL1, KDR, SMAD6 and S1PR3 ([1]; BIA 1 μM, 24 hrs): downregulated
- significantly downregulated differentially expressed genes ([1]; BIA 1 μM, 24 hrs): 652 genes
- significantly upregulated differentially expressed genes ([1]; BIA 1 μM, 24 hrs): 862 genes
- BTB-genes modulated by BIA ([1]; of the 12 BTB-genes of the in-silico screening): 8 of the 12
- time of maximum reduction of CDH5 protein levels post-BIA addition ([2]; 1 μM BIA, remained for 2 days): 12 h
- protein levels of CAV1 or MFSD2A ([2]; BIA 1 μM, 48 hours): did not show any changes of protein levels
- barrier establishment (TEER), BIA added 24 hours after plating [3]: prevented barrier establishment
- barrier formation (TEER), BIA added to confluent monolayers ([3]; BIA added at monolayer confluence (~110 hrs)): marked decreased of barrier formation
- BIA dose showing significant cisplatin accumulation in the tumor [4]: above 10 mg/kg
- platinum uptake in contralateral healthy brain regions ([5]; cisplatin 5 mg/kg 24 hours after BIA): no significant difference of uptake
- cisplatin (platinum) accumulation in tumor after BIA pre-treatment ([5]; cisplatin 5 mg/kg 24 hours after BIA, 5 hours circulation): significant cisplatin intra-tumoral accumulation
- platinum accumulation in peripheral tissues such as heart or liver ([5]; cisplatin 24 hours after BIA): no difference in platinum accumulation
- cellular drug (platinum) accumulation due to BIA addition [6]: did not observe any advantage in drug accumulation
- CDH5 expression in contra-lateral healthy brain regions [7]: did not observe significant changes in expression of CDH5
- CDH5 in CD31+ endothelial cells and CDH5+ tumor cells [7]: striking decrease of CDH5
- Claudin-5 staining in tissue ([7]; G9-PCDH xenograft): no visible differences in Claudin-5 staining
- ZO-1 expression in tissue ([7]; G9-PCDH xenograft): mild reductions of ZO-1 expression
- cell viability, BIA single-treatment [8]: reduced the cell viability of cells mildly
